Experimental findings from PMC5382548 (Scientific Reports, 2015) are described below.

One test deals with WI-38 (lung fibroblast). Nature of the test: SRB short-term cytotoxicity assay, WI-38. Format: cell-based. The conditions noted are these: Homo sapiens, 96 h. On the procedure:
(§1) Short-term anti-proliferative assays were carried out by two different assays using a panel of human cancer and non-malignant human cell lines. […] The transformed human embryonic kidney cell line HEK293T (wt KRAS) was sensitive to all tested drugs, including TMPyP4, a cationic porphyrin established as a G4 ligand, as well as the anticancer drug 5-fluorouracil (5-FU).
(§2) Human cell lines, breast carcinoma (MCF7), lung carcinoma (A549), pancreatic cancer (MIA PaCa2, Panc-1), immortalised telomerase-negative human lung fibroblast (ALT) and normal human lung fibroblast (WI-38), were all purchased from American Type Cell Culture (ATCC). Cell lines were maintained in appropriate medium supplemented with 10% fetal bovine serum (Invitrogen, UK), 2 mM L-glutamine (Invitrogen, Netherlands), and other components as specified by the suppliers. All cell lines were maintained at 37°C, 5% CO2, and routinely passaged. Short-term growth inhibition was measured using the SRB assay as described previously[43] (additional details described in Supplementary Information). […]
(§3) Sulforhodamine B (SRB) short-term cytotoxicity assay
(§4) Cells were seeded at appropriate densities into the wells of 96 well plates in their corresponding medium and incubated overnight to allow the cells to attach. Subsequently cells were exposed to various concentrations of freshly made solutions of drugs and incubated for 96 h. The cells were subsequently fixed with ice-cold trichloacetic acid (TCA) (10%, w/v) for 30 min and stained with 0.4% SRB dissolved in 1% acetic acid for 15 min.
(§5) All incubations were carried out at room temperature except for TCA fixation, which was at 4 °C. The IC50 value, the concentration required to inhibit cell growth by 50%, was determined from the mean absorbance at 540 nm for each drug concentration expressed as a percentage of the control untreated well absorbance. (Performed at School of Pharmacy, University College of London). […]
(#sc-30/sc-126; Santa Cruz Biotechnology Inc., Santa Cruz, CA, USA). […]

For test [1], the system named is KRAS21R (DNA, G4) AGGGCGGTGTGGGAAGAGGGA
As to the kind of experiment: spectrofluorimetric titration, one-site Hill slope fit. The note with it: 60 mM K+, K-cacodylate pH 7.4, 25 °C, 1 μM compound, apparent, SD ≤ 0.2 × 10^6.

The subject of another test is A594 (lung). As to the kind of experiment: SRB short-term cytotoxicity assay, A594. In kind it is cell-based, human. The note with it: for IC50: Homo sapiens, 96 h. The procedure: as §1, §2, §3, §4, §5
(#sc-30/sc-126; Santa Cruz Biotechnology Inc., Santa Cruz, CA, USA). Finally, immunoblots were incubated with secondary anti-mouse antibody conjugated with horseradish peroxidase (BioRad) for 3 h at room temperature. The membranes were processed for protein detection using Super Signal substrate (Pierce, Rockford, IL, USA). β-Actin (#A-5441, Sigma–Aldrich) was used as a loading control. Steady-state protein levels were expressed as mean ±SEM from at least three independent experiments.

Another test has as its system KRAS21R G4. Nature of the test: FRET melting assay, KRAS21R G4. The note with it: G4 0.2 μM, ligand 1 μM, K-cacodylate buffer pH 7.4, 60 mM K+. In kind it is binding, human. On the procedure: Fluorescence resonance energy transfer (FRET) studies with DNA sequences labelled at the 5′ and 3′ ends, were conducted to evaluate the G4 DNA stabilizing properties of IQcs (at 0.1 to 5 μM ligand concentrations). The G4-forming sequence KRAS21R[11], together with T-loop, a 26-mer hairpin double-stranded DNA (ds-DNA) sequence were used in the first screening assay. Reproducible IQc dose-dependent melting curves (Sup. Inf.; Figure S3) and stabilization temperature (ΔTm) values were obtained (Figure 2 and Table S5).
Figure 2 FRET stabilization temperatures (ΔTm) of KRAS21R G4 and hairpin ds-DNA (T-loop) at 0.2 μM, in K-cacodylate buffer (pH = 7.4, 60 mM K^+), stabilized by IQc derivatives and TMPyP4 at 1 μM. ^a) SD ≤ 0.2°C. TEXT PRINTED IN THE PICTURE: TMPyP4: ΔTm / °C ^a) (T-Loop): 16.0; ΔTm / °C ^a) (KRAS21R): 25.1 | 3e: ΔTm / °C ^a) (T-Loop): 6.5; ΔTm / °C ^a) (KRAS21R): 22.0 | 3d: ΔTm / °C ^a) (T-Loop): 5.6; ΔTm / °C ^a) (KRAS21R): 19.9 | 2d: ΔTm / °C ^a) (T-Loop): 6.1; ΔTm / °C ^a) (KRAS21R): 15.1 | 2a: ΔTm / °C ^a) (T-Loop): 1.5; ΔTm / °C ^a) (KRAS21R): 4.4 […]
Oligonucleotide sequences were purchased from Eurofins MWG Synthesis GmbH, Germany or STAB VIDA Genomics Lab, Caparica, Lisbon, Portugal. The labelled oligonucleotides used in the FRET assays had attached the donor fluorophore FAM (6-carboxyfluorescein) and the acceptor fluorophore TAMRA (6-carboxytetramethylrhodamine): KRAS21R: 5′-FAM-[…]-TAMRA-3′; KRAS32R: 5′-FAM-[…]-TAMRA-3′; UTR-1: 5′-FAM-GCGGCGGCGGAGG-TAMRA-3′; UTR-2: 5′-FAM-[…]-TAMRA-3; T-Loop:5′-FAM-[…]-TAMRA-3′; F21T: 5′-FAM-[…]-TAMRA-3′. Non-labelled oligonucleotides were used in FRET competition assays and in the spectroscopic studies: ds26: - d(5′-CAATCGGATCGAATT CGATCCGATTG-3′); KRAS21R: 5′-[…]-3′; HT21: 5′-[…]-3′. Each oligonucleotide was initially diluted to a storage solution at 100 μM in nuclease-free water (not DEPC-treated), purchased from Ambion Applied Biosystems UK.
The ability of indolo[3,2-c]quinolines to stabilize DNA sequences was investigated using a Fluorescence Resonance Energy Transfer (FRET) assay as reported elsewhere.
Figure S3 (cont.)| Concentration-dependent (0.1, 0.5, 1, 2, 3, 4 and 5 µM) FRET melting profiles of G4 structures and T-loop DNA with indolo[3,2-c]quinoline derivatives 1a, 2a-g and 3d-j in K-cacodylate buffer (pH 7.4, 60 mM K+). […]
Table S5 | FRET stabilization temperatures (ΔTm) of G4s sequences and ds-DNA (0.2 µM) stabilized by […]

A word on the IC50: it is the midpoint of a concentration-inhibition curve. The low end stands for greater potency, the high end for weaker potency. Turning to `CCN(CC)CCCNc1ccc2c(c1)c1[nH]c3ccccc3c1c[n+]2C` [2d], the 50% inhibitory concentration (IC50) in the test with WI-38 (lung fibroblast) came to 4.86 µM; in the test on A594 (lung), 0.4 µM. Also, the Ka in test [1] (Hill 2.0) came out at 4.4e+06 M⁻¹. Also, the “FRET stabilization temperature ΔTm (KRAS21R)” value with KRAS21R G4 stood at 15.1 °C.

In the test on WI-38 (lung fibroblast), `Cn1cc2c3ccccc3nc-2c2cc(Br)ccc21` [2a, 2-bromo-5-methyl-indolo[3,2-c]quinoline] showed an IC50 of 6.26 µM. Further, in the test on A594 (lung), the “Selectivity index SI = IC50(WI-38)/IC50(A594)” value was 9.3 and half-maximal inhibition (IC50) was put at 0.67 µM.

For the compound `CCN(CC)CCCNc1ccc2[nH]c3c(c[n+](C)c4ccc(NCCCN(CC)CC)cc34)c2c1.[Cl-]` [3d], in the test with KRAS21R G4, the “FRET stabilization temperature ΔTm (KRAS21R)” value came to 19.9 °C.

Take `C[n+]1ccc(-c2c3nc(c(-c4cc[n+](C)cc4)c4ccc([nH]4)c(-c4cc[n+](C)cc4)c4ccc([nH]4)c(-c4cc[n+](C)cc4)c4nc2C=C4)C=C3)cc1` [TMPyP4, reference compound]: in the test with KRAS21R G4, the “FRET stabilization temperature ΔTm (KRAS21R)” value is 25.1 °C.

In turn, `CCN(CC)CCCNc1ccc2c(c1)[nH]c1c2c[n+](C)c2ccc(NCCCN(CC)CC)cc12.[Cl-]` [3e] returned an IC50 with WI-38 (lung fibroblast) of 10.1 µM. Moreover, the Ka in test [1] (Hill 2.4) was 8.6e+06 M⁻¹. In the test with A594 (lung), the “Selectivity index SI = IC50(WI-38)/IC50(A594)” value is listed as 7.0 and inhibition was half-maximal at 1.45 µM (IC50). For the same compound, the “FRET stabilization temperature ΔTm (KRAS21R)” value in the test with KRAS21R G4 was 22.0 °C.
